Source: patent US9126941B2, “Treatment of hyperproliferative disorders with diarylhydantoin compounds” (The Regents of the University of California, priority 2005, dated 2015)
Where two headings read alike, the source gives them in different places.

Columns and labels:
AR [1] = biological target: T1, AR (Homo sapiens, UniProt P10275); test: cell-based; type: cell-based; details: for Rank order, most active to least active, relative luciferase activity (FIG. 3): 500 nM; for IC50 (nM) Reporter: LNCaP-AR, 100 pM R1881, two days, No = did not inhibit AR response reporter
Description: The compounds were subjected to tests using an artificial AR response reporter system in a hormone refractory prostate cancer cell line. […] After two days of incubation, reporter activities were assayed.

AR [2] = biological target: T1, AR; test: cell-based; type: cell-based; details: for PSA levels of LN-AR cells (FIG. 21): doses of 100, 200, 500 and 1000 nM
Description: It is well established that PSA levels are indicators of AR activities in prostate cancer. […] The LNCaP-AR cells are a line of lymph node carcinoma of prostate cells transduced with a plasmid that makes express androgen receptors. […] After four days incubation, secreted PSA levels were assayed using PSA ELISA kits (American Qualex, San Clemente, Calif.)

T1 sequence (P10275 whole entry, looked up): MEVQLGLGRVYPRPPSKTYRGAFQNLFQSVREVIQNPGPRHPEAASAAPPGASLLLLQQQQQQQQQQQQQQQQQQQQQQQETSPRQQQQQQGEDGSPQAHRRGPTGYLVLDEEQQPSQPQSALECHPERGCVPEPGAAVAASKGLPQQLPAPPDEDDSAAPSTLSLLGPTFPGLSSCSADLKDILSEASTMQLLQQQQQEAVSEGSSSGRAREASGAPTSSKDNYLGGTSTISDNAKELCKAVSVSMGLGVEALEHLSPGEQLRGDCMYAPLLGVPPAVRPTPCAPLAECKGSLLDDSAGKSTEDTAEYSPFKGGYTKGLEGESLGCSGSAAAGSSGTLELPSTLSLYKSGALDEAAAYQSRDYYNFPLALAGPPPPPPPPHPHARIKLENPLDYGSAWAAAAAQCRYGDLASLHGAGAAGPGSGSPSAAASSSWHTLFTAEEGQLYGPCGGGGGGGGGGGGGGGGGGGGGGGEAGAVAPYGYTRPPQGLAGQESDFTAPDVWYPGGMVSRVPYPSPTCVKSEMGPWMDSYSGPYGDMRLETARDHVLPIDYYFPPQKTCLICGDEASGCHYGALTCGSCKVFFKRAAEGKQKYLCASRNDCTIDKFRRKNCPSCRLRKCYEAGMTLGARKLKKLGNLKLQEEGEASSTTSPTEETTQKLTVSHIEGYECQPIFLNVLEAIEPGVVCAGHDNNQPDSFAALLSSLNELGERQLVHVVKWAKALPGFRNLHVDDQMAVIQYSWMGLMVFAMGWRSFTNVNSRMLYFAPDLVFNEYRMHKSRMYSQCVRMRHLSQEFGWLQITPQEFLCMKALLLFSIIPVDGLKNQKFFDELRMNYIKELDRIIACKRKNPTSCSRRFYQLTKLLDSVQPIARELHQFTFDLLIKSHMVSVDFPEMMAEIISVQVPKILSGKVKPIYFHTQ

SMILES: N#Cc1ccc(N2C(=O)C3(CCC3)N(c3ccc(O)cc3)C2=S)cc1C(F)(F)F [RD58, 4-(8-oxo-6-thioxo-5-(4-hydroxyphenyl)-5,7-diazaspiro[3.4]oct-7-yl)-2-trifluoromethylbenzonitrile]
- IC50 (AR [1]): 162 nM

SMILES: CC(O)c1ccc(N2C(=S)N(c3ccc(C#N)c(C(F)(F)F)c3)C(=O)C23CCC3)cc1 (centres unmarked) [RD116, 4-{5-[4-(1-hydroxyethyl)-phenyl]-8-oxo-6-thioxo-5,7-diazaspiro[3.4]oct-7-yl}-2-trifluoromethyl-benzonitrile]
- IC50 (AR [2]): 187 nM

SMILES: Cc1ccnc(N2C(=S)N(c3ccc(C#N)c(C(F)(F)F)c3)C(=O)C2(C)C)c1 [RD83, 4-[4,4-dimethyl-3-(4-methylpyridin-2-yl)-5-oxo-2-thioxoimidazolidin-1-yl]-2-trifluoromethylbenzonitrile]
- IC50 (AR [1]): 457 nM

SMILES: CC1(C)C(=O)N(c2ccc(C#N)c(C(F)(F)F)c2)C(=S)N1c1ccccc1C(=O)O [RD65, 2-[3-(4-cyano-3-trifluoromethylphenyl)-5,5-dimethyl-4-oxo-2-thioxoimidazolidin-1-yl]benzoic acid]
- IC50 (AR [1]): 523 nM
- IC50 (AR [2]): > 500 nM

SMILES: Cc1ccc(N2C(=S)N(c3ccc(C#N)c(C(F)(F)F)c3)C(=O)C23CCN(C)CC3)cc1 [RD53, 4-(8-methyl-4-oxo-2-thioxo-1-(4-methylphenyl)-1,3,8-triazaspiro[4.5]dec-3-yl)-2-trifluoromethylbenzonitrile]
- IC50 (AR [1]): 638 nM

SMILES: CS(=O)(=O)N1CCN(c2ccc(N3C(=S)N(c4ccc(C#N)c(C(F)(F)F)c4)C(=O)C34CCC4)cc2)CC1 [RD138, 4-{5-[4-(4-methanesulfonylpiperazin-1-yl)-phenyl]-8-oxo-6-thioxo-5,7-diazaspiro[3.4]oct-7-yl}-2-trifluoromethylbenzonitrile]
- IC50 (AR [1]): 138 nM
- Rank order, most active to least active, relative PSA level (FIG. 4) (AR [2]; 500 nM): RD138>RD131>RD37>RD133>RD134>RD137>RD138>RD135>bicalutamide
- Decrease in PSA level of LNCaP-AR cells, comparison (FIG. 4) (AR [2]; at concentrations of 1000 nM): greater decrease in PSA level of LNCaP-AR cells than RD135 and RD137

SMILES: CC1(C)C(=O)N(c2ccc(C#N)c(C(F)(F)F)c2)C(=S)N1c1ccc(OC(=O)CCl)cc1 [RD13, Chloroacetic acid 4-[3-(4-cyano-3-trifluoromethylphenyl)-5,5-dimethyl-4-oxo-2-thioxoimidazolidin-1-yl]phenyl ester]
- IC50 (AR [1]): 131 nM

SMILES: CC1(C)C(=O)N(c2ccc(C#N)c(C(F)(F)F)c2)C(=S)N1c1ccccc1 [Example 6-2, 4-[3-phenyl-4,4-dimethyl-5-oxo-2-thioxoimidazolidin-1-yl]-2-trifluoromethylbenzonitrile]
- IC50 (AR [1]): 149 nM

SMILES: Cc1cc(N2C(=S)N(c3ccc(C#N)c(C(F)(F)F)c3)C(=O)C23CCC3)[nH]n1 [RD84, 4-[5-(5-methyl-2H-pyrazol-3-yl)-8-oxo-6-thioxo-5,7-diaza-spiro[3.4]oct-7-yl]-2-trifluoromethyl-benzonitrile, reference compound]
- IC50 (AR [1]): > 1000 nM

SMILES: Cc1ccc(N2C(=S)N(c3ccc(C#N)c(C(F)(F)F)c3)C(=O)C23CCCCC3)cc1 [RD48, 4-(4-oxo-2-thioxo-1-(4-methylphenyl)-1,3-diazaspiro[4.5]dec-3-yl)-2-trifluoromethylbenzonitrile]
- IC50 (AR [1]): 194 nM

SMILES: COC(=O)c1ccc(N2C(=S)N(c3ccc(C#N)c(C(F)(F)F)c3)C(=O)C2(C)C)cc1 [RD152, 4-[3-(4-cyano-3-trifluoromethylphenyl)-5,5-dimethyl-4-oxo-2-thioxo-imidazolidin-1-yl]benzoic acid methyl ester]
- Luciferase activity in LNCaP-AR cells (FIG. 3) (AR [1]): acted to reduce luciferase activity
- Rank order, most active to least active, relative luciferase activity (FIG. 3) (AR [1]): RD152>RD153>RD145>RD163>RD161=RD162>bicalutamide

SMILES: CC1(C)C(=S)N(c2ccc(C#N)c(C(F)(F)F)c2)C(=S)N1c1ccc(O)cc1 [RD59, 4-[3-(4-hydroxyphenyl)-4,4-dimethyl-2,5-dithioxoazolidin-1-yl]-2-trifluoromethylbenzonitrile]
- IC50 (AR [1]): 278 nM
- IC50 (AR [2]): 287 nM

SMILES: N#CCCCc1ccc(N2C(=S)N(c3ccc(C#N)c(C(F)(F)F)c3)C(=O)C23CCC3)cc1 [RD170, 4-(5-(4-(3-Cyanopropyl)phenyl)-8-oxo-6-thioxo-5,7-diazaspiro[3.4]octan-7-yl)-2-(trifluoromethyl)benzonitrile]
- PSA levels of LN-AR cells (FIG. 21) (AR [2]): decreased

SMILES: CNC(=O)c1ccc(N2C(=S)N(c3ccc(C#N)c(C(F)(F)F)c3)C(=O)C2(C)C)cc1 [RD153, 4-[3-(4-cyano-3-trifluoromethylphenyl)-5,5-dimethyl-4-oxo-2-thioxo-imidazolidin-1-yl]-N-methylbenzamide]
- Luciferase activity in LNCaP-AR cells (FIG. 3) (AR [1]): acted to reduce luciferase activity
- Rank order, most active to least active, relative luciferase activity (FIG. 3) (AR [1]): RD152>RD153>RD145>RD163>RD161=RD162>bicalutamide
- Luciferase activity, LN/AR cell line (FIG. 29) (AR [1]; for a given concentration, 125 nmol to 1000 nmol): less than the luciferase activity upon exposure to RD155

SMILES: Cc1ccc(N2C(=S)N(c3ccc(C#N)c(C(F)(F)F)c3)C(=O)C23CCCC3)cc1 [RD35, 4-(4-oxo-2-thioxo-1-(4-methylphenyl)-1,3-diazaspiro[4.4]non-3-yl)-2-trifluoromethylbenzonitrile]
- IC50 (AR [1]): 147 nM

SMILES: CN1CCC2(CC1)NC(=S)N(c1ccc(C#N)c(C(F)(F)F)c1)C2=O [RD52, 4-(8-methyl-4-oxo-2-thioxo-1,3,8-triazaspiro[4.5]dec-3-yl)-2-trifluoromethylbenzonitrile, reference compound]
- IC50 (nM) Reporter (AR [1]): No

SMILES: N#Cc1ccc(N2C(=O)C3(CCC3)N(c3ccc(C=O)cc3)C2=S)cc1C(F)(F)F [RD114, 4-[5-(4-formylphenyl)-8-oxo-6-thioxo-5,7-diazaspiro[3.4]oct-7-yl]-2-trifluoromethyl-benzonitrile]
- IC50 (AR [2]): 263 nM

SMILES: CC1(C)C(=O)N(c2ccc(C#N)c(C(F)(F)F)c2)C(=S)N1c1ccc(N)cc1 [RD9, 4-[3-(4-aminophenyl)-4,4-dimethyl-5-oxo-2-thioxoimidazolidin-1-yl]-2-trifluoromethylbenzonitrile]
- IC50 (AR [1]): 273 nM

SMILES: CS(=O)(=O)c1ccc(N2C(=S)N(c3ccc(C#N)c(C(F)(F)F)c3)C(=O)C23CCC3)cc1 [RD145, 4-[5-(4-methanesulfonylphenyl)-8-oxo-6-thioxo-5,7-diazaspiro[3.4]oct-7-yl]-2-trifluoromethylbenzonitrile]
- Luciferase activity in LNCaP-AR cells (FIG. 3) (AR [1]): acted to reduce luciferase activity
- Rank order, most active to least active, relative luciferase activity (FIG. 3) (AR [1]): RD152>RD153>RD145>RD163>RD161=RD162>bicalutamide

SMILES: CC1(C)C(=O)N(c2ccc(C#N)c(C(F)(F)F)c2)C(=S)N1c1ccccn1 [RD82, 4-[4,4-dimethyl-3-(4-pyridin-2-yl)-5-oxo-2-thioxoimidazolidin-1-yl]-2-trifluoromethylbenzonitrile]
- IC50 (AR [1]): 723 nM

SMILES: N#Cc1ccc(N2C(=O)C3(CCCC3)N(c3ccc([N+](=O)[O-])cc3)C2=S)cc1C(F)(F)F [RD55, 4-[1-(4-nitrophenyl)-4-oxo-2-thioxo-1,3-diazaspiro[4.4]non-3-yl]-2-trifluoromethylbenzonitrile]
- IC50 (AR [1]): 498 nM

SMILES: N#Cc1ccc(N2C(=O)C3(CCC3)N(c3ccc(/C=C/CO)cc3)C2=S)cc1C(F)(F)F [RD120, 4-{5-[4-(3-hydroxypropenyl)-phenyl]-8-oxo-6-thioxo-5,7-diazaspiro[3.4]oct-7-yl}-2-trifluoromethylbenzonitrile]
- IC50 (AR [2]): 114 nM

SMILES: COC(=O)CCCc1ccc(N2C(=S)N(c3ccc(C#N)c(C(F)(F)F)c3)C(=O)C23CCC3)cc1 [RD129, 4-{4-[7-(4-cyano-3-trifluoromethylphenyl)-8-oxo-6-thioxo-5,7-diazaspiro[3.4]oct-5-yl]-phenyl}-butyric acid methyl ester]
- IC50 (AR [1]): 432 nM

SMILES: CNC(=O)c1ccc(N2C(=S)N(c3ccc(C#N)c(C(F)(F)F)c3)C(=O)C23CCCC3)cc1F [RD162″, 4-(3-(4-Cyano-3-(trifluoromethyl)phenyl)-4-oxo-2-thioxo-1,3-diazaspiro[4.4]nonan-1-yl)-2-fluoro-N-methylbenzamide]
- PSA levels of LN-AR cells (FIG. 21) (AR [2]): decreased

SMILES: N#Cc1ccc(N2C(=O)C3(CCC3)N(c3ccc(/C=C/C(N)=O)cc3)C2=S)cc1C(F)(F)F [RD119, 3-{4-[7-(4-Cyano-3-trifluoromethyl-phenyl)-8-oxo-6-thioxo-5,7-diaza-spiro[3.4]oct-5-yl]-phenyl}-acrylamide]
- IC50 (AR [2]): 113 nM

SMILES: CN(C)C(=O)CCCc1ccc(N2C(=S)N(c3ccc(C#N)c(C(F)(F)F)c3)C(=O)C23CCC3)cc1 [RD169, 4-(4-(7-(4-Cyano-3-(trifluoromethyl)phenyl)-8-oxo-6-thioxo-5,7-diazaspiro[3.4]octan-5-yl)phenyl)-N,N-dimethylbutanamide]
- PSA levels of LN-AR cells (FIG. 21) (AR [2]): decreased

SMILES: N#Cc1ccc(N2C(=O)C3(CCC3)N(c3ccc(O)cc3F)C2=S)cc1C(F)(F)F [RD163, 4-[5-(2-fluoro-4-hydroxyphenyl)-8-oxo-6-thioxo-5,7-diazaspiro[3.4]oct-7-yl]-2-trifluoromethylbenzonitrile]
- Luciferase activity in LNCaP-AR cells (FIG. 3) (AR [1]): acted to reduce luciferase activity
- Rank order, most active to least active, relative luciferase activity (FIG. 3) (AR [1]): RD152>RD153>RD145>RD163>RD161=RD162>bicalutamide

SMILES: COC(=O)CCc1ccc(N2C(=S)N(c3ccc(C#N)c(C(F)(F)F)c3)C(=O)C23CCC3)cc1 [RD128, 3-{4-[7-(4-cyano-3-trifluoromethylphenyl)-8-oxo-6-thioxo-5,7-diazaspiro[3.4]oct-5-yl]-phenyl}-propionic acid methyl ester]
- IC50 (nM) Reporter (AR [1]): No

SMILES: N#Cc1ccc(N2C(=O)C3(CCC3)N(c3ccc(-c4ccccc4)cc3)C2=S)cc1C(F)(F)F [RD57, 4-(8-oxo-6-thioxo-5-(4-biphenyl)-5,7-diazaspiro[3.4]oct-7-yl)-2-trifluoromethylbenzonitrile]
- IC50 (AR [1]): 283 nM
